Data set [1] concerns cardiomyoblast h9c2 cells. The settings on record: cited from earlier work.
Data set [2] has as its target T1, 5-HT1A receptors (Homo sapiens, UniProt P08908).
T1 construct: University of North Carolina Psychoactive Drug Screening Project (PDSP), contract testing
T1 sequence (P08908 1-422): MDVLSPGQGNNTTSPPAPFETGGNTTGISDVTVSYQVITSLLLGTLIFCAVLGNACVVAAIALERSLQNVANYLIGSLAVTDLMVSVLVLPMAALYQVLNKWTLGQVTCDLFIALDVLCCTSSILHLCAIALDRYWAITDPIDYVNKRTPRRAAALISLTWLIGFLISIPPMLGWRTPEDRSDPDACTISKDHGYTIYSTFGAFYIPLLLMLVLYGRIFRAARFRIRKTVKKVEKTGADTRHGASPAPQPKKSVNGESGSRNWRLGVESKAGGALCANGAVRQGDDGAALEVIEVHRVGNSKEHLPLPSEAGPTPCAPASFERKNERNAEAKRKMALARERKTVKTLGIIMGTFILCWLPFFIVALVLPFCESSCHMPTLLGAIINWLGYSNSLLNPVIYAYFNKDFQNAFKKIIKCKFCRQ
The experiment in a line: PDSP radioligand competition binding, 5-HT1A. Conditions: secondary binding assay, average of n = 3. The procedure: (§1) All six of the hybrid TFMPP–MDBP regioisomers reported in this manuscript were tested for their serotonin receptor and reuptake pump binding profiles by the University of North Carolina's Psychoactive Drug Screening Project (PDSP). Initially, each isomer was tested in a primary assay at a concentration of 10 umol/L for its ability to displace a standard ligand at each serotonin receptor and transporter subtype. […] The Ki (nmol/L) values were obtained from non-linear regression of radioligand competition binding isotherms in this assay and calculated from best-fit inhibitory concentration IC50 values using the Cheng–Prusoff equation. The reported values are the average of three (n = 3) determinations. Further experimental details regarding these receptor assays are presented in the PDSP Protocol Manual available at the PDSP website.
(In general: In a radioligand displacement assay an active substance lowers the binding of a labelled ligand.)

Data set [3] concerns the target T2, 5-HT2A receptors (Homo sapiens, UniProt P28223).
T2 construct: University of North Carolina Psychoactive Drug Screening Project (PDSP), contract testing
In words: PDSP radioligand competition binding, 5-HT2A. Conditions: for Ki: secondary binding assay, average of n = 3. The procedure: as §1

In another data set the target is T3, 5-HT2B receptors (Homo sapiens, UniProt P41595).
T3 construct: University of North Carolina Psychoactive Drug Screening Project (PDSP), contract testing
T3 sequence (P41595 whole entry): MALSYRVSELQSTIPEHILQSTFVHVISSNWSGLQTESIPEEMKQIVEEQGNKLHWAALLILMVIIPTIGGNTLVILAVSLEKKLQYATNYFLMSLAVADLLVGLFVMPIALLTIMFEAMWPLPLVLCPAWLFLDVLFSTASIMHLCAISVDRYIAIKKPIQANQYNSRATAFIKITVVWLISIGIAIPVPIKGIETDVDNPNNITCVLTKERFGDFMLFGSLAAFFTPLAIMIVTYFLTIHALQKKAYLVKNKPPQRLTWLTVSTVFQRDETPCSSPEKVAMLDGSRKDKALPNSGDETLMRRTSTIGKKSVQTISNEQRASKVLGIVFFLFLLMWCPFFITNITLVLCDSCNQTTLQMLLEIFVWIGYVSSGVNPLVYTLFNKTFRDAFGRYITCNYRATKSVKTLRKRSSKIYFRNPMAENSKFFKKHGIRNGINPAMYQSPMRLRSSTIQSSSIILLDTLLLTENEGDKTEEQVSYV
In words: PDSP radioligand competition binding, 5-HT2B. Conditions: secondary binding assay, average of n = 3. As to the method: as §1

The target in a further data set is T4, 5-HT2C receptors (Homo sapiens, UniProt P28335).
T4 construct: University of North Carolina Psychoactive Drug Screening Project (PDSP), contract testing
T4 sequence (P28335 33-458): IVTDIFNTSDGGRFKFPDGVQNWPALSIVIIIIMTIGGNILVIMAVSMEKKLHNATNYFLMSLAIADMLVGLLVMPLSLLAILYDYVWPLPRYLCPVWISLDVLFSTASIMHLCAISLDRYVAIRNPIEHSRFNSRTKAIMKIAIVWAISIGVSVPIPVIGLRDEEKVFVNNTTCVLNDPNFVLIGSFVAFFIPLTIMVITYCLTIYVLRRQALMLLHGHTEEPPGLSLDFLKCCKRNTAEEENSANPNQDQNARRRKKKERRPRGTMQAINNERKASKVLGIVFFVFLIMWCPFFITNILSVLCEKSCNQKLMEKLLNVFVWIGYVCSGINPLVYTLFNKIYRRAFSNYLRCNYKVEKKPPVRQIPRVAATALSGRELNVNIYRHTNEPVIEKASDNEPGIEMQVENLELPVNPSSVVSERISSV
The experiment in a line: PDSP radioligand competition binding, 5-HT2C. The settings on record: for Ki: secondary binding assay, average of n = 3. As to the method: as §1

In another data set the target is T5, 5-HT7 receptors (Homo sapiens, UniProt P34969).
T5 construct: University of North Carolina Psychoactive Drug Screening Project (PDSP), contract testing
T5 sequence (P34969 whole entry): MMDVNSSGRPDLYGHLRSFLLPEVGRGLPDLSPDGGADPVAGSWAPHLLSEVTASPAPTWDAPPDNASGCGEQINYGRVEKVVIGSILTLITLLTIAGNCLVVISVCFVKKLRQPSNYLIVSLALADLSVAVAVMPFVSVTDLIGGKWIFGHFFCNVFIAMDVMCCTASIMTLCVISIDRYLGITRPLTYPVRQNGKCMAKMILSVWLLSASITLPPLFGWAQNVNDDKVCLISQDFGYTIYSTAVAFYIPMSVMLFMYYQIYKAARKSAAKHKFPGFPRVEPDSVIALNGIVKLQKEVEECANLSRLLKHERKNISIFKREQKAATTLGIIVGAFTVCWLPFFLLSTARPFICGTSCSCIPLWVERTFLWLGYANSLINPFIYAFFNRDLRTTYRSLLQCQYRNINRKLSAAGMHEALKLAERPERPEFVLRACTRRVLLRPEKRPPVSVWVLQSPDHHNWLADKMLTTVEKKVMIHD
The experiment in a line: PDSP radioligand competition binding, 5-HT7. Conditions: for Ki: secondary binding assay, average of n = 3. The procedure:
as §1

In data set [4] the target is T6, SERT (serotonin reuptake pump) (Homo sapiens, UniProt P31645).
T6 construct: University of North Carolina Psychoactive Drug Screening Project (PDSP), contract testing
T6 sequence (P31645 whole entry, species assumed): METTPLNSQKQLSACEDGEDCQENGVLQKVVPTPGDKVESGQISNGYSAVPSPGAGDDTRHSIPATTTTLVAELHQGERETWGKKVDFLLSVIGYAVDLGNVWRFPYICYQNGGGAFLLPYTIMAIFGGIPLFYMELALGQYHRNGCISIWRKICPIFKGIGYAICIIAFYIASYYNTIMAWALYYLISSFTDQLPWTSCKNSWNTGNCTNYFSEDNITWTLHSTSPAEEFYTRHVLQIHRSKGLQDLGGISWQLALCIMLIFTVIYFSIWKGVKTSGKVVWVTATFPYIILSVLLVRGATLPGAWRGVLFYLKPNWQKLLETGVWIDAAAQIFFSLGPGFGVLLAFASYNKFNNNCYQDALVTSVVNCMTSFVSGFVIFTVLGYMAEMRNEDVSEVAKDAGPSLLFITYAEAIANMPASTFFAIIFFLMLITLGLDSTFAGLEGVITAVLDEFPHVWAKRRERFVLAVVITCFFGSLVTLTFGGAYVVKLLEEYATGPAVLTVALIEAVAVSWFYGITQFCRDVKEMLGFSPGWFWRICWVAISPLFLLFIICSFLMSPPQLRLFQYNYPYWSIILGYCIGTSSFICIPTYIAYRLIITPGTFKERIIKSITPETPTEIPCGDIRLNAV
In words: PDSP radioligand competition binding, SERT. Conditions: for Ki: secondary binding assay, average of n = 3. As to the method:
as §1

Data set [5] has as its target T1, 5-HT1A receptors. The settings on record: read-out: Ki, 5-HT1A; literature value, no reference given; cited from earlier work.
Another data set concerns the target 5-HT1B receptors. Conditions: literature value, no reference given; cited from earlier work.
In another data set the target is 5-HT1D receptors. Conditions: literature value, no reference given; cited from earlier work.
Data set [6] deals with T2, 5-HT2A receptors. The settings on record: read-out: Ki, 5-HT2A; literature value, no reference given; cited from earlier work.
In another data set the test system is SERT. The settings on record: no reference given, cited from earlier work.
The subject of data set [7] is 5-HT1A, 5-HT1B, 5-HT1D and 5-HT2C receptors. Conditions: literature, no reference given; cited from earlier work.
For a further data set, the system named is 5-HT2A receptor. The settings on record: literature, no reference given; cited from earlier work.
Data set [8] has as its system dopamine and norepinephrine reuptake pumps. The settings on record: literature, no reference given; cited from earlier work.
Data set [9] concerns other serotonin receptor subtypes. Conditions: literature, no reference given; cited from earlier work.

Read-outs that look alike come from different tables or passages of the source.

The values that follow come from paper PMC6197089, “Disubstituted piperazine analogues of trifluoromethylphenylpiperazine and methylenedioxybenzylpiperazine: analytical differentiation and serotonin receptor binding studies” (Forensic sciences research, 2018).

By Ki is commonly meant a measure of affinity in units of concentration, obtained from inhibition or displacement.

T2 sequence (P28223 whole entry): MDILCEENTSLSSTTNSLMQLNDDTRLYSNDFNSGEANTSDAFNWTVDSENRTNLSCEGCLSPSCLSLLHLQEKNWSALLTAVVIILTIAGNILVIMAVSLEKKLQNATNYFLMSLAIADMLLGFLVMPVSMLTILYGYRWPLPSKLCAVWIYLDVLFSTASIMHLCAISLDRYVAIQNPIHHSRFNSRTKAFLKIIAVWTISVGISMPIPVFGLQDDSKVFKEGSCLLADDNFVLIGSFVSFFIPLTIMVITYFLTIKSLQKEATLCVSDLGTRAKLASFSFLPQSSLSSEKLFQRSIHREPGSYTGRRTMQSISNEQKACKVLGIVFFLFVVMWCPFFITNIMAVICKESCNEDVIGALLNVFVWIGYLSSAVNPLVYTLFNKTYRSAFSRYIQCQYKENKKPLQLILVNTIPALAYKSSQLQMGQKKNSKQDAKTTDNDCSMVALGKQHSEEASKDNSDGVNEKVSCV

As for `c1cc2c(cc1CN1CCNCC1)OCO2` [3,4-MDBP, 1-(3,4-methylenedioxybenzyl) piperazine], in [1], the intracellular calcium levels entry is “significant increase” and the mitochondrial membrane potential result was “decrease”.
Consider `FC(F)(F)c1ccccc1N1CCN(Cc2cccc3c2OCO3)CC1` [Compound 1, 2-TFMPP-2,3-MDBP], for which the Ki was greater than 1000 nM on 5-HT1A receptors [2]; greater than 1000 nM at 5-HT2A receptors [3]; 74.5 nM at 5-HT2B receptors; 868 nM at 5-HT2C receptors; 165 nM on 5-HT7 receptors; greater than 1000 nM in data set [4]. The “binding to 5-HT2C receptors, in words” value on 5-HT2C receptors is recorded as “modest binding”. Besides, the “binding by 5-HT7 receptors, in words” value on 5-HT7 receptors is “bound by 5-HT7 receptors”; on 5-HT7 receptors (listed as 2-TFMPP-2,3-MDBP), “highest affinity”.
`FC(F)(F)c1cccc(N2CCN(Cc3cccc4c3OCO4)CC2)c1` [Compound 2, 3-TFMPP-2,3-MDBP]: the Ki at 5-HT1A receptors [2] is 864 nM; at 5-HT2A receptors [3] it was 372 nM; at 5-HT2B receptors it was 203 nM; on 5-HT2C receptors, 753 nM; on 5-HT7 receptors, 747 nM; in data set [4], greater than 1000 nM. Besides, at 5-HT2A receptors [3], the “affinity at 5-HT2A receptors compared to 3-TFMPP, in words” value is “retained activity comparable to the parent designer drug”. Further, the “binding to 5-HT2C receptors, in words” value on 5-HT2C receptors was “modest binding”. In addition, at 5-HT7 receptors, the “binding by 5-HT7 receptors, in words” value is “bound by 5-HT7 receptors”.
On to `FC(F)(F)c1ccc(N2CCN(Cc3cccc4c3OCO4)CC2)cc1` [Compound 3, 4-TFMPP-2,3-MD], for which the Ki was greater than 1000 nM on 5-HT1A receptors [2]; greater than 1000 nM at 5-HT2A receptors [3]; 870 nM on 5-HT2B receptors; greater than 1000 nM on 5-HT2C receptors; greater than 1000 nM at 5-HT7 receptors; greater than 1000 nM in data set [4].
Take `FC(F)(F)c1cccc(N2CCNCC2)c1` [Compound 3-TFMPP, 1-(3-trifluoromethylphenyl) piperazine]: the Ki is 288 nM on 5-HT1A receptors [5], 132 nM on 5-HT1B receptors, 282 nM on 5-HT1D receptors and 269 nM on 5-HT2A receptors [6]. The EC50 in the data set on SERT (literature value, read-out: effective concentration (EC50) at SERT) is 121 nM. Moreover, in the data set on SERT (literature), the “serotonin release, in words” value is reported as “promotes serotonin release”. In addition, the “functional activity at all sites except 5-HT2A” value in data set [7] is on record as “full agonist”. In the data set with 5-HT2A receptor, the “functional activity at the 5-HT2A receptor” value is listed as “weak partial agonist or antagonist”. For the same compound, in [8], the “effects on dopamine and norepinephrine reuptake pumps” value is “no effects”. Further, the “affinity for other serotonin receptor subtypes, in words” value in data set [9] is reported as “does not show significant affinity”. For the same compound, in [1], the intracellular calcium levels entry is on record as “significant increase”. Further, in data set [1], the mitochondrial membrane potential result is “decrease”.
`FC(F)(F)c1ccccc1N1CCN(Cc2ccc3c(c2)OCO3)CC1` [Compound 4, 2-TFMPP-3,4-MDBP]: the Ki on 5-HT1A receptors [2] was greater than 1000 nM; at 5-HT2A receptors [3] it was greater than 1000 nM; on 5-HT2B receptors, 81 nM; on 5-HT2C receptors, 924 nM; on 5-HT7 receptors it was 462 nM; in data set [4] it was greater than 1000 nM. The “binding to 5-HT2C receptors, in words” value on 5-HT2C receptors was “modest binding”. Also, the “binding by 5-HT7 receptors, in words” value at 5-HT7 receptors was “bound by 5-HT7 receptors”.
Consider `FC(F)(F)c1cccc(N2CCN(Cc3ccc4c(c3)OCO4)CC2)c1` [Compound 5, 3-TFMPP-3,4-MDBP], for which the Ki at 5-HT1A receptors [2] was 188 nM; at 5-HT2A receptors [3] it was greater than 1000 nM; at 5-HT2B receptors, 116 nM; at 5-HT2C receptors, 430 nM; on 5-HT7 receptors, 516 nM; in [4] it was greater than 1000 nM. The “binding to 5-HT2C receptors, in words” value at 5-HT2C receptors is recorded as “modest binding”. Moreover, at 5-HT7 receptors, the “binding by 5-HT7 receptors, in words” value is on record as “bound by 5-HT7 receptors”.
On to `FC(F)(F)c1ccc(N2CCN(Cc3ccc4c(c3)OCO4)CC2)cc1` [Compound 6, 4-TFMPP-3,4-MDBP], for which the Ki on 5-HT1A receptors [2] is greater than 1000 nM; at 5-HT2A receptors [3] it was greater than 1000 nM; at 5-HT2B receptors it was 247 nM; at 5-HT2C receptors, greater than 1000 nM; at 5-HT7 receptors, greater than 1000 nM; in data set [4], 722 nM. The “affinity for SERT pumps, in words” value in data set [4] is on record as “significant affinity”. Further, the “potency at SERT relative to monosubstituted 3-TFMPP” value in data set [4] is “about six-times less potent”.
